Experimental findings from BindingDB's records for doi:10.1016/s0960-894x(01)00019-1 (Glaxowellcome Medicines Research Centre, 2001) are described below.

The assay is described as follows: Inhibitory activity against influenza A sialidase (Aichi).
In turn, `CCCN(CCC)C(=O)[C@@H]1OC(C(=O)O)=C[C@@H](N)[C@H]1NC(C)=O` [(4R,5R,6R)-5-Acetylamino-4-amino-6-dipropylcarbamoyl-5,6-dihydro-4H-pyran-2-carboxylic acid] returned a half-inhibitory concentration (IC50) of 140 nM.

As for `CCCN(CCC)C(=O)[C@@H]1OC(C(=O)O)=C[C@H](N)[C@H]1NS(C)(=O)=O` [(4S,5R,6R)-4-Amino-6-dipropylcarbamoyl-5-methanesulfonylamino-5,6-dihydro-4H-pyran-2-carboxylic acid], the midpoint of inhibition, the IC50, lay at 3000 nM. The same measure for `CCCN(CCc1ccccc1)C(=O)[C@@H]1OC(C(=O)O)=C[C@@H](O)[C@H]1NC(C)=O` [(4R,5R,6R)-5-Acetylamino-4-hydroxy-6-(phenethyl-propyl-carbamoyl)-5,6-dihydro-4H-pyran-2-carboxylic acid]: 17 nM. `CCCN(CCc1ccccc1)C(=O)[C@@H]1OC(C(=O)O)=C[C@H](O)[C@H]1NC(C)=O` [(4S,5R,6R)-5-Acetylamino-4-hydroxy-6-(phenethyl-propyl-carbamoyl)-5,6-dihydro-4H-pyran-2-carboxylic acid] came in with an IC50 of 7 nM. This IC50 lies about 2.4-fold lower than the previous one. The same measure for `CCCN(CCc1ccccc1)C(=O)[C@@H]1OC(C(=O)O)=C[C@H](N)[C@H]1NC(=O)C(F)(F)F` [(4S,5R,6R)-4-Amino-6-(phenethyl-propyl-carbamoyl)-5-(2,2,2-trifluoro-acetylamino)-5,6-dihydro-4H-pyran-2-carboxylic acid]: 3 nM. For the molecule `CCCN(CCC)C(=O)[C@@H]1OC(C(=O)O)=C[C@H](N)[C@H]1NC(=O)C(C)C` [(4S,5R,6R)-4-Amino-6-dipropylcarbamoyl-5-isobutyrylamino-5,6-dihydro-4H-pyran-2-carboxylic acid], the IC50 is 17000 nM. The same measure for `CCCN(CCc1ccccc1)C(=O)[C@@H]1OC(C(=O)O)=C[C@H](N)[C@H]1NC(=O)CC` [(4S,5R,6R)-4-Amino-6-(phenethyl-propyl-carbamoyl)-5-propionylamino-5,6-dihydro-4H-pyran-2-carboxylic acid]: 0.7 nM; for `CCCN(CCC)C(=O)[C@@H]1OC(C(=O)O)=C[C@H](N)[C@H]1NC(=O)CC` [(4S,5R,6R)-4-Amino-6-dipropylcarbamoyl-5-propionylamino-5,6-dihydro-4H-pyran-2-carboxylic acid]: 5 nM; for `CCCN(CCC)C(=O)[C@@H]1OC(C(=O)O)=C[C@H](NC)[C@H]1NC(C)=O` [(4S,5R,6R)-5-Acetylamino-6-dipropylcarbamoyl-4-methylamino-5,6-dihydro-4H-pyran-2-carboxylic acid]: 240 nM.

With `CCCN(CCC)C(=O)[C@@H]1OC(C(=O)O)=C[C@H](NCC)[C@H]1NC(C)=O` [(4S,5R,6R)-5-Acetylamino-6-dipropylcarbamoyl-4-ethylamino-5,6-dihydro-4H-pyran-2-carboxylic acid], the midpoint of inhibition, the IC50, lay at 420 nM. As for `CCCN(CCc1ccccc1)C(=O)[C@@H]1OC(C(=O)O)=C[C@H](N)[C@H]1NC(=O)C1CC1` [(4S,5R,6R)-4-Amino-5-(cyclopropanecarbonyl-amino)-6-(phenethyl-propyl-carbamoyl)-5,6-dihydro-4H-pyran-2-carboxylic acid], the midpoint of inhibition, the IC50, lay at 50 nM. In turn, `CCCN(CCC)C(=O)[C@@H]1OC(C(=O)O)=C[C@H](N)[C@H]1NC(=O)C(F)(F)F` [(4S,5R,6R)-4-Amino-6-dipropylcarbamoyl-5-(2,2,2-trifluoro-acetylamino)-5,6-dihydro-4H-pyran-2-carboxylic acid] displayed an IC50 of 0.3 nM. Next, `CCCN(CCc1ccccc1)C(=O)[C@@H]1OC(C(=O)O)=CC[C@H]1NC(C)=O` [(5R,6R)-5-Acetylamino-6-(phenethyl-propyl-carbamoyl)-5,6-dihydro-4H-pyran-2-carboxylic acid]: 7 nM; `CCCC(=O)N[C@@H]1[C@@H](N)C=C(C(=O)O)O[C@H]1C(=O)N(CCC)CCc1ccccc1` [(4S,5R,6R)-4-Amino-5-butyrylamino-6-(phenethyl-propyl-carbamoyl)-5,6-dihydro-4H-pyran-2-carboxylic acid]: 43000 nM.

In general, IC50 refers to the concentration needed to halve the response being measured. A lower IC50 goes with greater potency.
